Results taken from US20140088187A1, “ANDROGEN RECEPTOR INHIBITORS AND METHODS OF USE THEREOF” (BETH ISRAEL DEACONESS MEDICAL CENTER, priority 2010, published 2014).

How the values were obtained:
Type in all cases: cell-based
AR in VCaP cells = target: T1, AR in VCaP cells (Homo sapiens, UniProt P10275); assay: Nuclear AR, total AR protein and PSA expression in VCaP cells in steroid depleted medium
T1 construct: endogenous in cells; host or cells: VCaP
T1 sequence (P10275 1-920): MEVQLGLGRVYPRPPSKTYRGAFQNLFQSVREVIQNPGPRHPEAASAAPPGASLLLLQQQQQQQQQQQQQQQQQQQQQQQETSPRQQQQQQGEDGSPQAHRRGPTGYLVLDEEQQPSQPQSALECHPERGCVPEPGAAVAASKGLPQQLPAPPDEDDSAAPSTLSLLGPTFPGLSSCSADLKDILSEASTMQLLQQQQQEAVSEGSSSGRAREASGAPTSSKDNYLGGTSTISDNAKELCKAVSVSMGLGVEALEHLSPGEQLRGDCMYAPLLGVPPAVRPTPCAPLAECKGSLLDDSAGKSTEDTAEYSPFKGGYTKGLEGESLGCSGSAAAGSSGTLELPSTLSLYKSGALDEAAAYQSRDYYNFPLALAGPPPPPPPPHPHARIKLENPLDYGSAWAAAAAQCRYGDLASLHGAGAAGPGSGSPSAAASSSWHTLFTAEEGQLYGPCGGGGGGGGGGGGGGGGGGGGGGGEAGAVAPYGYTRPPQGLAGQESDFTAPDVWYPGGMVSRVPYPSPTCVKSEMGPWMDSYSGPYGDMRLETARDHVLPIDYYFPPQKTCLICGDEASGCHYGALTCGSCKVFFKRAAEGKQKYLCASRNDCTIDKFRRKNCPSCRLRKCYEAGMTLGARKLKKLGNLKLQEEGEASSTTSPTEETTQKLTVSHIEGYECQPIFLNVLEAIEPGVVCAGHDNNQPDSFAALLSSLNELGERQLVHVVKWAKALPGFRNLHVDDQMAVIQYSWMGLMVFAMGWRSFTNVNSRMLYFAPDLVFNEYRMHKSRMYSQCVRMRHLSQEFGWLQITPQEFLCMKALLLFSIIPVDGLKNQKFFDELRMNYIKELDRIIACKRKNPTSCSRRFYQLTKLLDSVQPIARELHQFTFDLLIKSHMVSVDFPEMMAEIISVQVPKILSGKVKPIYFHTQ
Excerpt: VCaP cells, derived from a CRPC vertebral metastasis, express substantial levels of AR and AR regulated genes such as PSA even when cultured in steroid depleted medium. […] In additional studies focused on chemotype A compounds, we used immunofluorescence to assess AR nuclear localization. […] In contrast, and consistent with the biochemical fractionation studies noted above, basal nuclear AR was decreased by A61.
We used the NE-PER Nuclear and Cytoplasmic Extraction Reagents (Pierce 78833).

[1] = target: T2, endogenous wildtype AR in VCaP cells (Homo sapiens, UniProt P10275); assay: AR protein degradation with CHX in VCaP cells; settings: CHX 100 nM, A89 50 μM
T2 construct: endogenous in cells; host or cells: VCaP
T2 sequence (P10275 1-920): T1 sequence (P10275 1-920)
Method: As LNCaP and C4-2 cells express the T877A mutant AR, we next examined PC3-AR cells expressing wildtype AR. As observed in C4-2 cells, A89 caused a decrease in AR protein levels (FIG. 10d). To further validate that this was due to increased AR protein degradation, we pretreated these cells with A89 for 2 hours and then blocked new protein synthesis with cycloheximide (CHX). […] We finally examined VCaP cells.

[2] = target: T3, AR ΔH12 (M886X variant AR) (Homo sapiens, UniProt P10275); assay: Mifepristone-stimulated VP16-NCoRc recruitment reporter assay in COS7 cells, AR ΔH12
T3 construct: expressed in transfected cells; host or cells: COS7
T3 sequence (P10275 1-886 limits assumed): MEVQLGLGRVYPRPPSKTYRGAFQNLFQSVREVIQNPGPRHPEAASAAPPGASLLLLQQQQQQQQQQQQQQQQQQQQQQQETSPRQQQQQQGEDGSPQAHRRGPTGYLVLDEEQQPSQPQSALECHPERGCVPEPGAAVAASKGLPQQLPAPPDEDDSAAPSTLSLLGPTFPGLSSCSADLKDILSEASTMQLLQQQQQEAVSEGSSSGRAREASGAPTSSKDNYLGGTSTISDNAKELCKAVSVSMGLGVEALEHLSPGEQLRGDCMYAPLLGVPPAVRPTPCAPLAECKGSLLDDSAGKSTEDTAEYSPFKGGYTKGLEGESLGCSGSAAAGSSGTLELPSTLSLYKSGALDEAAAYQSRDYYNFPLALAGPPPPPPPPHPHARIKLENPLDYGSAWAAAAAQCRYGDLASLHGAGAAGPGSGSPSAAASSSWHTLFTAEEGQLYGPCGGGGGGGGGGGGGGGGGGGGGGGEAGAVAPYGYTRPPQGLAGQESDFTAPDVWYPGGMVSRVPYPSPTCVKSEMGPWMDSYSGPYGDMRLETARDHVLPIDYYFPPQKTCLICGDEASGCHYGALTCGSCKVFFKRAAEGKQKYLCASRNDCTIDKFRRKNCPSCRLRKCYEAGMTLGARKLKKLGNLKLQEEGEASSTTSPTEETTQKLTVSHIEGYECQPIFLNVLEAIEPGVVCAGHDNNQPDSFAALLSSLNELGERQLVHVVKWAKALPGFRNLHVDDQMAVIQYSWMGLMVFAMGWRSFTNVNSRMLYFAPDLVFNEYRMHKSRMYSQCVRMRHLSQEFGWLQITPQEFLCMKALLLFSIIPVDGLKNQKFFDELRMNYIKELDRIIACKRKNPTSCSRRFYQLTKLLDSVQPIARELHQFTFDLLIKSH
Excerpt: The ERα antagonist fulvestrant (Faslodex) represents a novel class of estrogen receptor downregulators that appear to mediate ERα degradation by specifically repositioning helix 12. To assess the role of helix 12 in chemotype A-mediated AR degradation, we first determined if helix 12 is required for A89 binding. As this helix is required for AR agonist activity, we could not directly measure competitive antagonist activity on a truncated AR lacking helix 12.

AR ΔH12 = target: T4, AR ΔH12 (Homo sapiens, UniProt P10275); assay: AR expression levels in transiently transfected COS7 cells, AR ΔH12; settings: 24 hours
T4 construct: expressed in transfected cells; host or cells: COS7
T4 sequence (P10275 1-886 limits assumed): T3 sequence (P10275 1-886 limits assumed)

CCOc1cc(F)c(S(=O)(=O)NCc2ccc3c(c2)OCO3)cc1F [Compound A89, N-(1,3-benzodioxol-5-ylmethyl)-4-ethoxy-2,5-difluorobenzenesulfonamide] was tested. Which “basal level PSA expression” value (AR in VCaP cells; 10 μM, steroid depleted medium) did it give?
The value was “further decreasing basal level PSA expression”.

What about the “nuclear AR” value (AR in VCaP cells; 10 μM, steroid depleted medium) of the same molecule?
The value was “significantly decreased nuclear AR”.

And the “DHT stimulated PSA expression” value (AR in VCaP cells; not shown)?
Its value is “blocking DHT stimulated PSA expression”.

What about the “degradation of endogenous wildtype AR” value [1] of the same molecule?
The value was “increased degradation”.

What about the “mifepristone-mediated VP16-NCoRc recruitment” value ([2]; A89 50 μM with Mif 100 nM) of the same molecule?
Its value is “suppressed”.

And the “VP16-NCoRc recruitment (interaction with AR)” value ([2]; Mif 100 nM, A89 50 μM, 24 hours)?
Its value is “did not stimulate”.

What about the “AR ΔH12 protein levels” value (AR ΔH12) of the same molecule?
The value was “not clearly decreased”.
